The experiment concerns the target T1, progesterone receptor PR (PR-B) (Homo sapiens, UniProt P06401).
T1 sequence (P06401 1-933): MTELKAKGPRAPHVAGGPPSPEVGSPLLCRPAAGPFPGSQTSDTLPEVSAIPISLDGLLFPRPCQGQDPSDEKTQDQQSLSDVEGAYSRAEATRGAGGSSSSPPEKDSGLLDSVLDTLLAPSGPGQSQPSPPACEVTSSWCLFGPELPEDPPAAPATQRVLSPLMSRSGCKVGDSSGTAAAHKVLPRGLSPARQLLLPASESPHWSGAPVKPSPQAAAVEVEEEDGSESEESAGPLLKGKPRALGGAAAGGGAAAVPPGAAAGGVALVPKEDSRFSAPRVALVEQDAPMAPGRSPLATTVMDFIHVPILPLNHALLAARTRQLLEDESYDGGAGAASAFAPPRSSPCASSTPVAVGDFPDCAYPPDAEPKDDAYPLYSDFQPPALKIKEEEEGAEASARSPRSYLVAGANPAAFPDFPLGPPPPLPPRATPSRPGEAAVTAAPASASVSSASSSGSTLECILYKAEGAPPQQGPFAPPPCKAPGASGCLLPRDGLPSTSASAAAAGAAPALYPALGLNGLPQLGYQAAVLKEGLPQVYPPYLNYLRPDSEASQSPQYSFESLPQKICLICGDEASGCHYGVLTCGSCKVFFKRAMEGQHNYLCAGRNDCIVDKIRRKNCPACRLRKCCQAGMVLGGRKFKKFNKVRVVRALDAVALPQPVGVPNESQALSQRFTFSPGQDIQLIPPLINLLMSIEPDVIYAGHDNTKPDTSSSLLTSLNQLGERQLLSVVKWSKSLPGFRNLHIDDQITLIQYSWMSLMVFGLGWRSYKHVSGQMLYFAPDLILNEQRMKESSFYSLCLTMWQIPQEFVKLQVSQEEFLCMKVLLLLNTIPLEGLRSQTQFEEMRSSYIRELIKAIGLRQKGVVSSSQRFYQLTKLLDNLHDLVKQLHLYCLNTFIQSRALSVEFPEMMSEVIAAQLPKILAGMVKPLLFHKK
Kind of experiment: Transactivation assay, antagonism on the progesterone receptor PR. In kind it is cell-based. The note with it: transactivation test for antagonistic activity on (PR-B). How it is done:
Antagonism on the progesterone receptor PR
The transactivation assay is carried out as described in WO 02/054064.

Each structure is given as a SMILES string.

The values below come from patent US20090075989A1, “NON-STEROIDAL PROGESTERONE RECEPTOR MODULATORS” (priority 2006, published 2009).

For the compound `Cc1noc(=O)c2ccc(NC(=O)C(O)(C#Cc3ccccc3)c3ccccc3)cc12` (racemic) [Example 1b, rac-6-[2,4-diphenyl-2-hydroxybut-3-ynoylamino]-4-methyl-2,3-benzoxazin-1-one], the IC50 (in general, the concentration that gives 50% inhibition) came to 30 nM. In other words, the double-digit nanomolar range. Take `Cc1noc(=O)c2ccc(NC(=O)C(O)(Cc3ccccc3)c3ccccc3)cc12` (racemic) [Example 5, rac-6-[2-hydroxy-2,3-diphenylpropionylamino]-4-methyl-2,3-benzoxazin-1-one]: half-maximal inhibition (IC50) required 5 nM. Compound `Cc1noc(=O)c2ccc(NC(=O)C(O)(Cc3ccccc3)c3ccc([N+](=O)[O-])cc3)cc12` (racemic) [Example 10, rac-6-[2-hydroxy-2-(4-nitrophenyl)-3-phenylpropionylamino]-4-methyl-2,3-benzoxazin-1-one] displayed an IC50 of 5 nM. Consider `N#Cc1ccc(NC(=O)C(O)(Cc2ccccc2)c2ccccc2)cc1Cl` (racemic) [Example 29b, rac-N-(3-chloro-4-cyanophenyl)-2-hydroxy-2,3-diphenylpropionamide], for which 40 nM corresponded to half-maximal inhibition (IC50). Compared with the last compound, the IC50 is about 8-fold higher. To `N#Cc1ccc(NC(=O)C(O)(Cc2ccccc2)c2ccccc2)cc1C(F)(F)F` (racemic) [Example 34b, rac-N-(4-cyano-3-trifluoromethylphenyl)-2-hydroxy-2,3-diphenylpropionamide] belongs 71 nM; to `Cc1noc(=O)c2ccc(NC(=O)C(O)(Cc3ccccc3)c3ccc(C(C)(C)C)cc3)cc12` (racemic) [Example 45c, rac-6-[2-hydroxy-2-(4-(1,1-dimethylethyl)phenyl)-3-phenylpropionylamino]-4-methyl-2,3-benzoxazin-1-one], 3.2 nM; to `Cc1noc(=O)c2ccc(NC(=O)C(O)(Cc3ccccc3)c3ccc(N(C)C)cc3)cc12` (racemic) [Example 48d, rac-6-[2-hydroxy-2-(4-dimethylaminophenyl)-3-phenylpropionylamino]-4-methyl-2,3-benzoxazin-1-one], 50 nM. As for `CC(=O)c1ccc(C(O)(Cc2ccccc2)C(=O)Nc2ccc3c(=O)onc(C)c3c2)cc1` (racemic) [Example 55f, rac-6-[2-hydroxy-2-(4-acetylphenyl)-3-phenylpropionylamino]-4-methyl-2,3-benzoxazin-1-one], the figure is 32 nM. As for `Cc1noc(=O)c2ccc(NC(=O)C(O)(Cc3ccccc3)c3cccs3)cc12` (racemic) [Example 64b, rac-6-[2-hydroxy-2-(thiophen-2-yl)-3-phenylpropionylamino]-4-methyl-2,3-benzoxazin-1-one], the figure is 8.9 nM; as for `Cc1noc(=O)c2ccc(NC(=O)C(O)(Cc3ccccc3)c3ccc(-c4cccs4)cc3)cc12` (racemic) [Example 75, rac-6-[2-hydroxy-2-(4-thiophen-2-ylphenyl)-3-phenylpropionylamino]-4-methyl-2,3-benzoxazin-1-one], 39.8 nM. Regarding `COc1ccc(C#CC(O)(C(=O)Nc2ccc(C#N)c(Cl)c2)c2ccccc2)cc1` (racemic) [Example 80], the IC50 was 40 nM.
